Laboratory results from PubChem BioAssay (NCI).
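Cultured in 96-well plates, cells were exposed to test compound for 48 hours across five concentrations. Abbreviation: GI50, concentration required for 50% inhibition of growth. The concentration for full growth arrest is given as TGI.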

Legend:
Assay in all cases: DTP human tumour cell line panel, 48 h
MALME-3M melanoma = system: MALME-3M melanoma
PC-3 prostate = system: PC-3 prostate
UACC-62 melanoma = system: UACC-62 melanoma
UACC-257 melanoma = system: UACC-257 melanoma
HT29 colon = system: HT29 colon
OVCAR-8 ovarian = system: OVCAR-8 ovarian
HOP-62 NSCLC = system: HOP-62 NSCLC
K-562 leukemia = system: K-562 leukemia
EKVX NSCLC = system: EKVX NSCLC
A498 renal = system: A498 renal
SK-MEL-2 melanoma = system: SK-MEL-2 melanoma
MDA-MB-231 breast = system: MDA-MB-231 breast
786-0 renal = system: 786-0 renal
OVCAR-3 ovarian = system: OVCAR-3 ovarian
HCT-15 colon = system: HCT-15 colon
NCI-H522 lung = system: NCI-H522 lung
HCT-116 colon = system: HCT-116 colon
UO-31 renal = system: UO-31 renal
SK-MEL-28 melanoma = system: SK-MEL-28 melanoma
NCI-H226 lung = system: NCI-H226 lung
SNB-75 CNS = system: SNB-75 CNS
RPMI-8226 leukemia = system: RPMI-8226 leukemia
A549 NSCLC = system: A549 NSCLC
IGROV1 ovarian = system: IGROV1 ovarian
LOX IMVI melanoma = system: LOX IMVI melanoma
ACHN renal = system: ACHN renal
DU-145 prostate = system: DU-145 prostate
SF-268 CNS = system: SF-268 CNS
OVCAR-4 ovarian = system: OVCAR-4 ovarian
U251 CNS = system: U251 CNS
SF-295 CNS = system: SF-295 CNS
SR leukemia = system: SR leukemia
MCF7 breast = system: MCF7 breast
MOLT-4 leukemia = system: MOLT-4 leukemia
KM12 colon = system: KM12 colon
SN12C renal = system: SN12C renal
T-47D breast = system: T-47D breast
SF-539 CNS = system: SF-539 CNS
OVCAR-5 ovarian = system: OVCAR-5 ovarian
NCI-H23 lung = system: NCI-H23 lung
MDA-MB-435 = system: MDA-MB-435
SW-620 colon = system: SW-620 colon
CAKI-1 renal = system: CAKI-1 renal
CCRF-CEM leukemia = system: CCRF-CEM leukemia
NCI-H460 lung = system: NCI-H460 lung
RXF 393 renal = system: RXF 393 renal
M14 melanoma = system: M14 melanoma
TK-10 renal = system: TK-10 renal
HS 578T breast = system: HS 578T breast
COLO 205 colon = system: COLO 205 colon
SK-MEL-5 melanoma = system: SK-MEL-5 melanoma
SK-OV-3 ovarian = system: SK-OV-3 ovarian
HOP-92 NSCLC = system: HOP-92 NSCLC
SNB-19 CNS = system: SNB-19 CNS
NCI/ADR-RES ovarian = system: NCI/ADR-RES ovarian

`O=[N+]([O-])c1cc(Cl)c(Cl)cc1[N+](=O)[O-]` was tested, and the TGI (MALME-3M melanoma) was 5.83 µM, the TGI (PC-3 prostate) was 3.94 µM and the TGI (UACC-62 melanoma) was 4.42 µM. For the same molecule, the TGI (UACC-257 melanoma) was 4.1 µM, the TGI (HT29 colon) was 26.9 µM and the TGI (OVCAR-8 ovarian) was 5.99 µM. The TGI (HOP-62 NSCLC) was 6.49 µM, the TGI (K-562 leukemia) was 5.81 µM and the TGI (EKVX NSCLC) was 8.81 µM. For the same molecule, the TGI (A498 renal) was 33 µM, the TGI (SK-MEL-2 melanoma) was 4.74 µM and the TGI (MDA-MB-231 breast) was 4.38 µM. For the same molecule, the TGI (786-0 renal) was 6.36 µM, the TGI (OVCAR-3 ovarian) was 3.22 µM and the TGI (HCT-15 colon) was 7.77 µM. It also gave a TGI (NCI-H522 lung) of 3.36 µM, a TGI (HCT-116 colon) of over 100 µM and a TGI (UO-31 renal) of 3.62 µM. The TGI (SK-MEL-28 melanoma) was 6.04 µM, the TGI (NCI-H226 lung) was 11 µM and the TGI (SNB-75 CNS) was 9.32 µM. The TGI (RPMI-8226 leukemia) was 15.2 µM, the TGI (A549 NSCLC) was 4.97 µM and the TGI (IGROV1 ovarian) was 3.44 µM. For the same molecule, the TGI (LOX IMVI melanoma) was 4.74 µM, the TGI (ACHN renal) was 6.51 µM and the TGI (DU-145 prostate) was 4.42 µM. It also gave a TGI (SF-268 CNS) of 3.66 µM, a TGI (OVCAR-4 ovarian) of 4.63 µM and a TGI (U251 CNS) of 3.82 µM. For the same molecule, the TGI (SF-295 CNS) was 5.23 µM, the TGI (SR leukemia) was 4.98 µM and the TGI (MCF7 breast) was 4.85 µM. The TGI (MOLT-4 leukemia) was 0.797 µM, the TGI (KM12 colon) was 13 µM and the TGI (SN12C renal) was 3.52 µM. The TGI (T-47D breast) was 6.63 µM, the TGI (SF-539 CNS) was 4.68 µM and the TGI (OVCAR-5 ovarian) was 5.21 µM. For the same molecule, the TGI (NCI-H23 lung) was 4.83 µM, the TGI (MDA-MB-435) was 12.8 µM and the TGI (SW-620 colon) was 7.73 µM. It also gave a TGI (CAKI-1 renal) of 4.28 µM, a TGI (CCRF-CEM leukemia) of over 100 µM and a TGI (NCI-H460 lung) of 12.3 µM. The TGI (RXF 393 renal) was 3.48 µM, the TGI (M14 melanoma) was 8.8 µM and the TGI (TK-10 renal) was 12.3 µM. It also gave a TGI (HS 578T breast) of 72.3 µM, a TGI (COLO 205 colon) of 26.5 µM and a TGI (SK-MEL-5 melanoma) of 29.2 µM.
For `CC(C)=CCC/C(C)=C/CC/C(C)=C/CC/C(C)=C/CSC[C@H](NC(=O)CCCCCN1CCN(C)CC1)C(=O)NC1CCCCC1`, the GI50 (PC-3 prostate) was 1.76 µM, the TGI (PC-3 prostate) was 3.49 µM and the GI50 (SK-OV-3 ovarian) was 13 µM. It also gave a TGI (SK-OV-3 ovarian) of 32.5 µM, a GI50 (UACC-257 melanoma) of 2.09 µM and a TGI (UACC-257 melanoma) of 4.93 µM. For the same molecule, the GI50 (OVCAR-8 ovarian) was 3.4 µM, the TGI (OVCAR-8 ovarian) was 14.3 µM and the GI50 (HOP-62 NSCLC) was 8.63 µM. The TGI (HOP-62 NSCLC) was 32.2 µM, the GI50 (A498 renal) was 14.4 µM and the TGI (A498 renal) was 34.2 µM. The GI50 (SK-MEL-2 melanoma) was 4.11 µM, the TGI (SK-MEL-2 melanoma) was 14.5 µM and the GI50 (MDA-MB-231 breast) was 2 µM. For the same molecule, the TGI (MDA-MB-231 breast) was 3.84 µM, the GI50 (OVCAR-3 ovarian) was 2.66 µM and the TGI (OVCAR-3 ovarian) was 6.49 µM. The GI50 (HCT-15 colon) was 1.78 µM, the TGI (HCT-15 colon) was 3.47 µM and the GI50 (SK-MEL-28 melanoma) was 1.79 µM. For the same molecule, the TGI (SK-MEL-28 melanoma) was 3.43 µM, the GI50 (NCI-H226 lung) was 24 µM and the TGI (NCI-H226 lung) was 98.2 µM. It also gave a GI50 (SNB-75 CNS) of 4.16 µM, a TGI (SNB-75 CNS) of 21 µM and a GI50 (RPMI-8226 leukemia) of 2.14 µM. For the same molecule, the TGI (RPMI-8226 leukemia) was 5.13 µM, the GI50 (A549 NSCLC) was 3.36 µM and the TGI (A549 NSCLC) was 14 µM. It also gave a GI50 (IGROV1 ovarian) of 2.91 µM, a TGI (IGROV1 ovarian) of 7.76 µM and a GI50 (DU-145 prostate) of 2.08 µM. For the same molecule, the TGI (DU-145 prostate) was 4.07 µM, the GI50 (SF-268 CNS) was 4.05 µM and the TGI (SF-268 CNS) was 17.5 µM. It also gave a GI50 (OVCAR-4 ovarian) of 3.51 µM, a TGI (OVCAR-4 ovarian) of 15.5 µM and a GI50 (U251 CNS) of 1.81 µM. The TGI (U251 CNS) was 3.52 µM, the GI50 (SF-295 CNS) was 1.74 µM and the TGI (SF-295 CNS) was 3.51 µM. The GI50 (HOP-92 NSCLC) was 2.13 µM, the TGI (HOP-92 NSCLC) was 11.3 µM and the GI50 (SR leukemia) was 2.44 µM. The TGI (SR leukemia) was 6.27 µM, the GI50 (MOLT-4 leukemia) was 3.17 µM and the TGI (MOLT-4 leukemia) was 8.44 µM. For the same molecule, the GI50 (KM12 colon) was 2.03 µM, the TGI (KM12 colon) was 4.01 µM and the GI50 (SN12C renal) was 2.36 µM. It also gave a TGI (SN12C renal) of 6.19 µM, a GI50 (T-47D breast) of 2.31 µM and a TGI (T-47D breast) of 7.02 µM. The GI50 (SNB-19 CNS) was 2.27 µM, the TGI (SNB-19 CNS) was 5.71 µM and the GI50 (OVCAR-5 ovarian) was 2.05 µM. The TGI (OVCAR-5 ovarian) was 5.25 µM, the GI50 (NCI-H23 lung) was 4.73 µM and the TGI (NCI-H23 lung) was 23.4 µM. It also gave a GI50 (MDA-MB-435) of 1.66 µM, a TGI (MDA-MB-435) of 3.07 µM and a GI50 (SW-620 colon) of 1.91 µM. The TGI (SW-620 colon) was 3.81 µM, the GI50 (CAKI-1 renal) was 3.08 µM and the TGI (CAKI-1 renal) was 11 µM. The GI50 (CCRF-CEM leukemia) was 2.51 µM, the TGI (CCRF-CEM leukemia) was 7.67 µM and the GI50 (NCI-H460 lung) was 1.94 µM. The TGI (NCI-H460 lung) was 3.73 µM, the GI50 (TK-10 renal) was 11.7 µM and the TGI (TK-10 renal) was 30.5 µM. For the same molecule, the GI50 (NCI/ADR-RES ovarian) was 8.98 µM, the TGI (NCI/ADR-RES ovarian) was 33.8 µM and the GI50 (HS 578T breast) was 3.54 µM. It also gave a TGI (HS 578T breast) of 17.4 µM.
